These results are taken from publication PMC12433258, “Binding Differences of the Peptide‐Substrate–Binding Domain of Collagen Prolyl 4‐Hydroxylases I and II for Proline‐ and Hydroxyproline‐Rich Peptides” (Proteins, 2025).

Read-outs that look alike come from different tables or passages of the source. No end group written: not given here.

Experiment [1] concerns the target T1, PSB‐I^143–238 construct (peptide‐substrate–binding domain of C‐P4H‐I α‐subunit) (Homo sapiens, UniProt P13674).
T1 construct: made in house; host or cells: E. coli Rosetta(DE3)pLysS, pET22b(+)
Kind of experiment: ITC binding of proline‐rich peptides to the PSB‐I^143–238 construct. The following applies: 25°C, 20 mM Bis‐Tris, 100 mM glycine; for ΔG / ΔH / −TΔS: pH 6.8, fixed n = 1, average ± SD of three measurements. From the text:
The PSB‐I^143–238 construct was cloned using standard molecular biology protocols, and a codon‐optimized P4ha1 cDNA for the full‐length C‐P4H‐I α‐subunit (GenScript Biotech Corporation, New Jersey, USA) was used as the template. This construct was amplified using a forward primer containing an NdeI site (underlined) (5′‐[…]‐3′) and a reverse primer containing an XhoI site (underlined) (5′‐[…]‐3′). The amplified product was digested with NdeI and XhoI and ligated into a pET22b(+) plasmid (Novagen, Wisconsin, USA) in‐frame with a C‐terminal His6‐tag, and its sequence (Ser143‐Glu238 (Figure 1A), with C‐terminal Leu‐Glu‐His6–tag) was verified by DNA sequencing in the Biocenter Oulu Sequencing Centre. PSB‐I^143–238 was expressed using Rosetta(DE3)pLysS cells in LB medium containing 100 μg/mL ampicillin and 34 μg/mL chloramphenicol. The cells were grown at 37°C using a shaker at 200 rpm until the OD600 reached 0.6–0.8, after which protein expression was induced using 1‐mM isopropyl β‐D‐1‐thiogalactopyranoside and incubated at 30°C for another 4 h. The cells were harvested and resuspended in 20 mL of 20‐mM Bis‐Tris, 100 mM glycine, pH 6.8 lysis buffer. After cell lysis by sonication, the supernatant was loaded onto a 20 mL Ni‐NTA chelating Sepharose column, pre‐equilibrated with the lysis buffer. Unbound proteins were washed away with 100 mL of the same buffer, and the bound proteins were eluted with a 100 mL linear imidazole gradient (0.0–0.5 M). The eluted fractions were analyzed by SDS‐PAGE to identify PSB‐I containing fractions, which were pooled, concentrated using the Amicon ultracentrifugal filter ([…] molecular weight cut‐off) and loaded on a Superdex75 16/600 preparative grade size‐exclusion chromatography (SEC) column (GE Healthcare, Chicago, USA), pre‐equilibrated with a 20 mM Bis‐Tris, 100 mM glycine, pH 6.8, SEC buffer. Fractions with PSB‐I^143–238 of high purity, based on SDS‐PAGE analysis, were pooled and concentrated to about 22 mg/mL (measured with a NanoDrop 1000, Thermo Scientific, Waltham, USA) and stored in the SEC buffer in 100 μL aliquots at −70°C. All characterizations, crystallization, and crystal testing experiments described below were performed in the Biocenter Oulu core facilities.
(§1) The peptides used in these studies were purchased from TAG Copenhagen A/S (Frederiksberg, Denmark). These peptides (9 residues) start with a free amino group and end with a free carboxylate group. The correct mass and the purity of the peptides (> 95% pure) were analyzed by the company using HPLC and mass spectrometry.
The protein samples of the PSB‐I^143–238 and PSB‐II constructs were prepared at a concentration of 50 μM in SEC buffer, being 20 mM Bis‐Tris, 100 mM glycine, pH 6.8 for PSB‐I^143–238 and 20 mM Tris, 50 mM NaCl, 50 mM glycine, pH 8.0 for PSB‐II (as described earlier). The peptides were dissolved in SEC buffer at a concentration of 3 mM by diluting a 100 mM stock solution in water with SEC buffer. The ITC measurements were carried out at 25°C, using the MicroCal iTC‐200 (Malvern Panalytical Ltd., Malvern, UK). The peptide solution was titrated into a sample cell of 200 μL volume from a syringe that was rotating at 750 rpm. First, 0.4 μL of the peptide solution was injected with a duration of 0.8 s; then, 12 consecutive injections were done, each with a volume of 3 μL, a duration of 6 s, and 180 s spacing time between each injection. For each peptide, at first only buffer in the sample cell (without protein) was titrated, and data were collected as control. Then the data for the PSB sample titrated with the peptide‐containing buffer were collected. The titration data were processed with Origin 7 (OriginLab, Massachusetts, USA) specifically designed for ITC data analysis. The control data that measured the residual heat effect from the peptide dilution were subtracted from the data of the peptide titration with PSB in the sample cell. […]

The next experiment has as its system C‐P4H‐II. The following applies: cited from earlier work. The source says:
(§2) Prolines that occur in the PxGP motif cannot be hydroxylated by the C‐P4H catalytic domain, as they are in the X‐position of the XYG‐repeat and the x‐residue at the Y‐position cannot be a proline. […] Low affinity of the (Gly‐Pro‐4Hyp)5 peptide for the PSB co ...

A further experiment concerns C‐P4H‐I. The following applies: cited from earlier work.
Description: as §2

In the next experiment the test system is PSB‐I construct. The following applies: previous C‐P4H peptide binding studies; cited from earlier work.
Description: as §2

Another experiment relates to PSB‐II construct. The following applies: previous C‐P4H peptide binding studies; cited from earlier work.
Description: as §2

Experiment [2] addresses T2, PSB‐II^142–236 construct (peptide‐substrate–binding domain of C‐P4H‐II α‐subunit) (Homo sapiens, UniProt O15460).
T2 construct: Met-His6 (N); made in house
Kind of experiment: ITC binding of proline‐rich peptides to the PSB‐II construct. To be noted: 25°C, 50 μM protein, 3 mM peptide, 20 mM Tris, 50 mM NaCl, 50 mM glycine, pH 8.0, one‐set‐of‐sites, fixed n = 1, average ± SD of three measurements.
Description: Additional experiments were done with a longer PSB‐I construct, PSB‐I^144–244 (residues Phe144‐Ser244 (Figure 1A), extended by a C‐terminal Leu‐Glu‐(His)6–tag) and with the PSB‐II^142–236 construct (residues Met142‐Glu236 (Figure 1A), preceded at the N‐terminus by a Met‐His6–tag). The expression and purification protocols for the PSB‐I^144–244 construct and the PSB‐II^142–236 construct have been described earlier.
as §1
The protein samples of the PSB‐I^143–238 and PSB‐II constructs were prepared at a concentration of 50 μM in SEC buffer, being 20 mM Bis‐Tris, 100 mM glycine, pH 6.8 for PSB‐I^143–238 and 20 mM Tris, 50 mM NaCl, 50 mM glycine, pH 8.0 for PSB‐II (as described earlier). […] The control data that measured the residual heat effect from the peptide dilution were subtracted from the data of the peptide titration with PSB in the sample cell. The integrated data were analyzed using the one‐set‐of‐sites fitting model with a fixed stoichiometry (n = 1). […]

Experiment [3] deals with T2, PSB‐II^142–236 construct (peptide‐substrate–binding domain of C‐P4H‐II α‐subunit). To be noted: ITC, data described previously, average ± SD of three measurements; cited from earlier work.
Experiment [4] has as its target DD‐I construct (double domain construct of the α‐subunit of C‐P4H‐I). The following applies: calorimetric binding, reported previously; read-out: Affinity (K D) for the PSB‐I domain of the DD‐I construct; cited from earlier work. The source says:
The affinity properties of the PSB‐I and PSB‐II constructs, as obtained from ITC peptide binding experiments, are shown in Table 2 and Figure S3.

T2 sequence (O15460 163-257): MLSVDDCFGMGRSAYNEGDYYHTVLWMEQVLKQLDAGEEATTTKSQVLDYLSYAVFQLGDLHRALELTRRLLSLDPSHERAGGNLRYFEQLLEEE
T1 sequence (P13674 160-255): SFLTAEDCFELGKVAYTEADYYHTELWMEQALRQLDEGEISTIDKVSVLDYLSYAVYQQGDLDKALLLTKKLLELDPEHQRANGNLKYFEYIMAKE

As to `C[C@H](NC(=O)[C@@H]1CCCN1C(=O)CNC(=O)[C@@H]1CCCN1C(=O)[C@@H]1CCCN1)C(=O)NCC(=O)N1CCC[C@H]1C(=O)N1CCC[C@H]1C(=O)NCC(=O)O` [PPG‐PAG‐PPG], in experiment [1], the ΔG was -5.51 ± 0.02 kcal/mol, the ΔH is -12.4 ± 0.5 kcal/mol and the “−TΔS” value came to 6.86 ± 0.49 kcal/mol.

For “(Gly‐Pro‐4Hyp)5 [model peptide with a hydroxyproline at the Y‐position of each tripeptide repeat]”, in the experiment with C‐P4H‐II, the “Substrate of C‐P4H‐II” value is reported as “not a substrate”. For the same compound, the “Substrate of C‐P4H‐I” value in the experiment on C‐P4H‐I was “not a substrate”. In the experiment on PSB‐I construct, the “Affinity for the PSB‐I construct relative to (PPG)5” value is recorded as “much lower affinity than the (PPG)5 substrate peptide”. Also, in the experiment with PSB‐II construct, the “Affinity for the PSB‐II construct relative to (PPG)5” value is “much lower affinity than the (PPG)5 substrate peptide”.

With PPGPRGPPG [PPG‐PRG‐PPG], in experiment [1], the ΔG is -6.06 ± 0.04 kcal/mol, the ΔH is -14.9 ± 0.4 kcal/mol and the “−TΔS” value came to 8.87 ± 0.37 kcal/mol.

As for `C[C@H](NC(=O)[C@@H]1CCCN1C(=O)CNC(=O)[C@@H]1C[C@@H](O)CN1C(=O)[C@@H]1CCCN1)C(=O)NCC(=O)N1CCC[C@H]1C(=O)N1C[C@H](O)C[C@H]1C(=O)NCC(=O)O` [POG‐PAG‐POG], the Kd in experiment [1] (50 μM protein in cell, 3 mM peptide in syringe, pH 6.8, one‐set‐of‐sites model, fixed n = 1, average ± SD of three measurements) is 79.6 ± 9.6 µM. In addition, in experiment [1], the ΔG was -5.60 ± 0.08 kcal/mol, the ΔH is -12.7 ± 0.2 kcal/mol and the “−TΔS” value is on record as 7.07 ± 0.25 kcal/mol. In addition, the Kd in experiment [2] is 26.2 ± 1.9 µM.

With PPPPPPPPP [P9, (Pro)9 peptide], in experiment [1], the ΔG is -5.59 ± 0.10 kcal/mol, the ΔH is -9.5 ± 0.8 kcal/mol and the “−TΔS” value worked out at 3.95 ± 0.82 kcal/mol. The Kd in experiment [3] is more than 1500 µM. The Kd in experiment [4] was 9.8 µM.

With PPGPPGPPG [(PPG)3, PPG‐PPG‐PPG peptide], in experiment [1], the ΔG was -4.83 ± 0.06 kcal/mol, the ΔH was -13.6 ± 1.7 kcal/mol and the “−TΔS” value came to 8.77 ± 1.66 kcal/mol. For the same compound, in experiment [3], the “K D” value is “Not detectable”. For the same compound, the Kd in experiment [4] was 144 µM.

In the case of PPGPEGPPG [PPG‐PEG‐PPG], in experiment [1], the ΔG was -5.57 ± 0.02 kcal/mol, the ΔH is -13.2 ± 1.2 kcal/mol and the “−TΔS” value is 7.67 ± 1.17 kcal/mol.
